Values quoted from earlier work in patent publication US20250064735A1, “CONTAINER SYSTEM AND PHARMACEUTICAL FOAM COMPOSITION COMPRISING BETAMETHASONE” (Glenmark Pharmaceuticals Limited, priority 2018, published 2025).

| pH at which the substance is stable | SMILES |
| --- | --- |
| greater than 8 | C=C1/C(=C\C=C2/CCC[C@]3(C)[C@@H]([C@H](C)/C=C/[C@@H](O)C4CC4)CC[C@@H]23)C[C@@H](O)C[C@@H]1O [Calcipotriene] |
| 4-6 | CC1C[C@H]2[C@@H]3CCC4=CC(=O)C=C[C@]4(C)[C@@]3(F)C(O)C[C@]2(C)[C@@]1(O)C(=O)CO (some centres unmarked) [Betamethasone, 9-fluoro-11,17,21-trihydroxy-16-methylpregna-1,4-diene-3,20-dione] |
